Results taken from publication PMC9329436, “Optimization of the 4-anilinoquin(az)oline scaffold as epidermal growth factor receptor (EGFR) inhibitors for chordoma utilizing a toxicology profiling assay platform” (Scientific Reports, 2022).
Like-named read-outs stand apart in the source and are kept apart here.

Legend:
Format in all cases: biochemical
[1] = molecular target: 320 wild-type protein kinases (Homo sapiens, UniProt P45984); details: singlicate
Source text: (§1) Table S4. Profiling of two compounds at two concentrations against 320 wild-type protein kinases; singlicate measurement; Residual activities (% of control).

[2] = molecular target: T1, 320 wild-type protein kinases (Homo sapiens, UniProt Q06418); details: kinase TYRO3, singlicate
T1 sequence (Q06418 41-890): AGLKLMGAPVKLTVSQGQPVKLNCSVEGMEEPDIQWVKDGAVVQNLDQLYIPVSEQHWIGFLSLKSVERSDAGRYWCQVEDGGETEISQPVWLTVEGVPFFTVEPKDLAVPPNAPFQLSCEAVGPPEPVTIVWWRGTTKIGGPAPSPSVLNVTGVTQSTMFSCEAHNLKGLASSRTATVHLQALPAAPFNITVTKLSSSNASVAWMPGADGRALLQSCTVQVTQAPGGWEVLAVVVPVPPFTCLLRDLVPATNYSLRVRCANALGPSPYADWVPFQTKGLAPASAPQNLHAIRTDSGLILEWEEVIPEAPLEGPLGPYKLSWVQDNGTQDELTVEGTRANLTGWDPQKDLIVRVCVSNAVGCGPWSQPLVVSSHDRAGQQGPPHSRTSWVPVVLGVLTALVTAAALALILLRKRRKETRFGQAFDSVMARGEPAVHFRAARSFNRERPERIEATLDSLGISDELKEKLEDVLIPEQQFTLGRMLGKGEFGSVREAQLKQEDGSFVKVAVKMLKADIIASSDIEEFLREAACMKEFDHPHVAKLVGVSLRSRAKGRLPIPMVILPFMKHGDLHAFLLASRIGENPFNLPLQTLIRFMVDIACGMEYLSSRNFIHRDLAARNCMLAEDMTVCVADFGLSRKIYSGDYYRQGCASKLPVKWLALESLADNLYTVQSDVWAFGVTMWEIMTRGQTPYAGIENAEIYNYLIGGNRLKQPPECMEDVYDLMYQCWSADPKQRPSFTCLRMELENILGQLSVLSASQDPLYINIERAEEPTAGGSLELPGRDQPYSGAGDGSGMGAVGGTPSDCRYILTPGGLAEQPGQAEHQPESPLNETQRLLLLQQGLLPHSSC
Source text: as §1

[3] = molecular target: T2, 320 wild-type protein kinases (Homo sapiens, UniProt Q13188); details: singlicate
T2 sequence (Q13188 1-491): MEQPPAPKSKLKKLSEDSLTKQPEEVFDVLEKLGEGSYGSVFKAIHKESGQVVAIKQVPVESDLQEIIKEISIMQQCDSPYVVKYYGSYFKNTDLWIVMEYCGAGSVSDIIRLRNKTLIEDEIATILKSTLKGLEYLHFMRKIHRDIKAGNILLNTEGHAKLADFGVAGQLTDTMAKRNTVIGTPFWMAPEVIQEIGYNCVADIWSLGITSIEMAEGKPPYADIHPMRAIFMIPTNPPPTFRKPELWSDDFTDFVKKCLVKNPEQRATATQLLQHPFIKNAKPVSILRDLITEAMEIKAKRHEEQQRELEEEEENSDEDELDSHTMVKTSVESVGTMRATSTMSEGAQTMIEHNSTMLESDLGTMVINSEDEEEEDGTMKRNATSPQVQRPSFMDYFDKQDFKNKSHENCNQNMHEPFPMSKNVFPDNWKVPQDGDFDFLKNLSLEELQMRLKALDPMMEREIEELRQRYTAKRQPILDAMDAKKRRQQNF
Source text: as §1

[4] = molecular target: T3, 320 wild-type protein kinases (Homo sapiens, UniProt Q8WTQ7); details: singlicate
T3 sequence (Q8WTQ7 1-553): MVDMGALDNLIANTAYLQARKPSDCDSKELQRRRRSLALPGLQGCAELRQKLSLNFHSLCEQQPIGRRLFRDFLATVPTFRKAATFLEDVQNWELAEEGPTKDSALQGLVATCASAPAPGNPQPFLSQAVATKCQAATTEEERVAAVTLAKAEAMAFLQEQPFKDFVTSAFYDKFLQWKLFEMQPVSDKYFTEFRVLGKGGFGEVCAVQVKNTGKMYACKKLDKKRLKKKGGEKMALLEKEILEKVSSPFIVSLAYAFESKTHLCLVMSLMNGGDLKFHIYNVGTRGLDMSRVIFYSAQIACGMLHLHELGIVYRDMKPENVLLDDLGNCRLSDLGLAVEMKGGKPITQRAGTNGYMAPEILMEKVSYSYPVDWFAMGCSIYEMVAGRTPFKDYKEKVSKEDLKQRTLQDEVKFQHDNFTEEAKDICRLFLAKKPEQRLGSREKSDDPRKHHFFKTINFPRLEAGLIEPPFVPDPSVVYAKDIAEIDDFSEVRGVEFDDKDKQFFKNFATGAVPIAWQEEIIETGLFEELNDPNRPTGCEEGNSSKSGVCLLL
Source text: as §1

[5] = molecular target: T4, 320 wild-type protein kinases (Homo sapiens, UniProt Q96L34); details: singlicate
T4 sequence (Q96L34 1-752): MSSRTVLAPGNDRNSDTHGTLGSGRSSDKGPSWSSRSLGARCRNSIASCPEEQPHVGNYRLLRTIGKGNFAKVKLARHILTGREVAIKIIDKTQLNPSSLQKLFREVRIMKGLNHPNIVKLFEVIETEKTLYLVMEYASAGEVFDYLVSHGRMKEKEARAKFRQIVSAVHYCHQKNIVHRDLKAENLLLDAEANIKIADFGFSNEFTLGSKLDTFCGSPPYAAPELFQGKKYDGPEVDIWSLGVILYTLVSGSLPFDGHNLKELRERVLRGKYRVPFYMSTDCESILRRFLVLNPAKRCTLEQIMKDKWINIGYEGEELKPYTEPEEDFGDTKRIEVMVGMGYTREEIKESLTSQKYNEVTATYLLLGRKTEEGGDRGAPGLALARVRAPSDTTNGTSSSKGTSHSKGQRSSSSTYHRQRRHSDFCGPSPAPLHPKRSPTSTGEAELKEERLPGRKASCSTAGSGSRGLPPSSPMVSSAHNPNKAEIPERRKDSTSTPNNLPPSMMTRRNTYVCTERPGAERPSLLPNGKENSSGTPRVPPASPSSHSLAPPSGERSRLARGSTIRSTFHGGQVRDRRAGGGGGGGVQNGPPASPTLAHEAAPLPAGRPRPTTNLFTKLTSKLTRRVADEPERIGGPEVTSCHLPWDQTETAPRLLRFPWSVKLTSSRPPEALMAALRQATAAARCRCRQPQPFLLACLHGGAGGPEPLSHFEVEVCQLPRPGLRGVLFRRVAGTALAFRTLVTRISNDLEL
Source text: as §1

320 wild-type protein kinases (Homo sapiens, UniProt P45984), sequence (P45984 whole entry): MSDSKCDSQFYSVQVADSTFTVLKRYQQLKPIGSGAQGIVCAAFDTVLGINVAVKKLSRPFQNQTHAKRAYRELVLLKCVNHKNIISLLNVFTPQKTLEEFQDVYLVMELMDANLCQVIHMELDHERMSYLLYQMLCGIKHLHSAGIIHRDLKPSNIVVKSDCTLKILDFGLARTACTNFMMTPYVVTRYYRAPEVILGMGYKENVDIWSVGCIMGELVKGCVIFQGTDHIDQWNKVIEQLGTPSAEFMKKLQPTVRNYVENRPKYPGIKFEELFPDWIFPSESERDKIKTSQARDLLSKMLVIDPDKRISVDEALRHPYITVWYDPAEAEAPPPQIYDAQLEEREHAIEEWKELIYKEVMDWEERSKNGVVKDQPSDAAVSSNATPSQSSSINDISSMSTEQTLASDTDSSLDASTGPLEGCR

Row | Structure (SMILES) | Residual activity ([1]; JNK2, 1.0E-06 M) | Residual activity ([1]; JNK2, 1.0E-07 M) | Residual activity, TYRO3 ([2]; assay conc. 1.0E-06 M) | Residual activity, TYRO3 ([2]; assay conc. 1.0E-07 M) | Residual activity ([3]; MST2, 1.0E-06 M) | Residual activity ([3]; MST2, 1.0E-07 M) | Residual activity ([4]; GRK7, 1.0E-06 M) | Residual activity ([4]; GRK7, 1.0E-07 M) | Residual activity ([5]; MARK4, 1.0E-06 M) | Residual activity ([5]; MARK4, 1.0E-07 M)
1 | C#Cc1cc(Nc2ncnc3cc(I)ccc23)ccc1Cl [Compound 41] | 116 % of control | 110 % of control | 91 % of control | 100 % of control | 102 % of control | 113 % of control | 116 % of control | 124 % of control | 114 % of control | 111 % of control
2 | C#Cc1cc(Nc2ncnc3cc(OC)c(OC)cc23)ccc1Cl [Compound 45] | 120 % of control | 115 % of control | 58 % of control | 93 % of control | 102 % of control | 103 % of control | 121 % of control | 115 % of control | 115 % of control | 110 % of control
